Source: ChEMBL document CHEMBL6182931, “Chemical Evolution of Aplithianine Class of Serine/Threonine Kinase Inhibitors” (J Med Chem, 2025)
Calls of active or inactive are those of the source. The rule behind the calls is not given here.

Columns and labels:
SR = assay: Antiproliferative activity against human SR cells assessed as growth inhibition; format: functional
[1] = Inhibition of DNAJB1-PKAcalpha (unknown origin) using biotinylated-peptide substrate CREB incubated for 45 mins in presence of ATP and cAMP by ELISA; set-up: species or system Homo sapiens
NCI/ADR-RES = assay: Antiproliferative activity against human NCI/ADR-RES cells assessed as growth inhibition; format: functional, cell-based
[2] = system: Panel NCI-60 (60 carcinoma cell lines); assay: Antiproliferative activity against human Panel NCI-60 (60 carcinoma cell lines) assessed as growth inhibition; format: functional
LOX IMVI = assay: Antiproliferative activity against human LOX IMVI cells assessed as growth inhibition; format: functional
MOLT-4 = assay: Antiproliferative activity against human MOLT-4 cells assessed as growth inhibition; format: functional
OVCAR-4 = assay: Antiproliferative activity against human OVCAR-4 cells assessed as growth inhibition; format: functional, cell-based
MDA-MB-468 = assay: Antiproliferative activity against human MDA-MB-468 cells assessed as growth inhibition; format: functional, cell-based
[3] = Inhibition of DNAJB1-PKAcalpha (unknown origin) overexpressed in mouse NIH/3T3 cells assessed as inhibition of CREB phosphorylation at Ser133 residue preincubated for 30 mins followed by forskolin addition and measured after 30 mins by fluorescence based multilabel reader analysis; format: cell-based; conditions: NIH3T3
[4] = molecular target: Tyrosine-protein kinase JAK1 (Homo sapiens) (UniProt P23458); assay: Inhibition of human JAK1 at 50 nM in presence of ATP by radiometric Hotspot kinase assay relative to control
[5] = molecular target: T1, Dual specificity tyrosine-phosphorylation-regulated kinase 2 (Homo sapiens) (UniProt Q92630); assay: Inhibition of human DYRK2 at 50 nM in presence of ATP by radiometric Hotspot kinase assay relative to control
T1 sequence (whole entry): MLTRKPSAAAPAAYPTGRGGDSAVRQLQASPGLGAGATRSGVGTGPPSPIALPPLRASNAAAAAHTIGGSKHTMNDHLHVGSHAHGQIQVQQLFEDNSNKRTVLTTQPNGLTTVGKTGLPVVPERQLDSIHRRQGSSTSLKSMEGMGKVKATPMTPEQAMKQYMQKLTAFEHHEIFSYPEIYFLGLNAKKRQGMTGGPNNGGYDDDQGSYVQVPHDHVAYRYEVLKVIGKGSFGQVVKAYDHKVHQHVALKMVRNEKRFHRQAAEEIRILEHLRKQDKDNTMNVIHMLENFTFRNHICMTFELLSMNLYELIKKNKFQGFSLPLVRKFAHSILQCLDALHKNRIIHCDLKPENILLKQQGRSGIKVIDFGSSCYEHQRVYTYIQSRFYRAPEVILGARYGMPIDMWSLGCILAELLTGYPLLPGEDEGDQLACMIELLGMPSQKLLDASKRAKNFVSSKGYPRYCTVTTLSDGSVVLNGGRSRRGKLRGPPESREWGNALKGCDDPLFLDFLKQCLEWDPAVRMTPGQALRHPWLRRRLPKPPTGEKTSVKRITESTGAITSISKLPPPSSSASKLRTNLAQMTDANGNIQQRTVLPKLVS

[6] = Apparent permeability across basolateral to apical side in human Caco-2 cells at 10 uM; format: ADME, cell-based; conditions: caco-2, 10 µM
[7] = Metabolic stability in human liver microsomes assessed as half-life at 0.1 uM measured after 60 mins; format: ADME, Microsome; conditions: 1 h
Albumin = Albumin (Homo sapiens, UniProt P02768); assay: Binding affinity to human serum albumin assessed as protein binding at 10 uM by equilibrium dialysis technique relative to control; format: ADME; conditions: isolated protein
[8] = Efflux ratio of apparent permeability across basolateral to apical side over apical to basolateral side in human Caco-2 cells at 10 uM; format: ADME, cell-based
[9] = molecular target: Tyrosine-protein kinase JAK2 (Homo sapiens) (UniProt O60674); assay: Inhibition of human JAK2 at 50 nM in presence of ATP by radiometric Hotspot kinase assay relative to control
[10] = molecular target: RAC-gamma serine/threonine-protein kinase (Homo sapiens) (UniProt Q9Y243); assay: Inhibition of human Akt3 at 50 nM in presence of ATP by radiometric Hotspot kinase assay
[11] = molecular target: RAC-beta serine/threonine-protein kinase (Homo sapiens) (UniProt P31751); assay: Inhibition of human Akt2 at 50 nM in presence of ATP by radiometric Hotspot kinase assay
[12] = molecular target: NT-3 growth factor receptor (Homo sapiens) (UniProt Q16288); assay: Inhibition of human TRKC at 50 nM in presence of ATP by radiometric Hotspot kinase assay relative to control
[13] = molecular target: T2, Dual specificity tyrosine-phosphorylation-regulated kinase 3 (Homo sapiens) (UniProt O43781); assay: Inhibition of human DYRK3 at 50 nM in presence of ATP by radiometric Hotspot kinase assay relative to control
T2 sequence (whole entry): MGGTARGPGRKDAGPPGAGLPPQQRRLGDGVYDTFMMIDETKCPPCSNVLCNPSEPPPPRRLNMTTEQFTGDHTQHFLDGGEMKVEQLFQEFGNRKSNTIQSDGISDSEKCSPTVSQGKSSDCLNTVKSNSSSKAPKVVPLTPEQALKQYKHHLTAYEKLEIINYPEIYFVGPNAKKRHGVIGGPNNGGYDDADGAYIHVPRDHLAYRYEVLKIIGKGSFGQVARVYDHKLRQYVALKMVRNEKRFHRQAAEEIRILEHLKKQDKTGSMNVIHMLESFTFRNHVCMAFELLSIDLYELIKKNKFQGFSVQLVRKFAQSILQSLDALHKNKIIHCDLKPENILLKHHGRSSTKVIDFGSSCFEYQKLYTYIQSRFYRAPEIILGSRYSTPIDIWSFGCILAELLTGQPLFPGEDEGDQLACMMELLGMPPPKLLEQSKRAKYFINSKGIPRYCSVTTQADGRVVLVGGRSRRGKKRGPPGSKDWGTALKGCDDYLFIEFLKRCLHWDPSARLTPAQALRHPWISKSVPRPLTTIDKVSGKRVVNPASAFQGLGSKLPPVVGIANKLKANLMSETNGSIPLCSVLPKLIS

[14] = molecular target: cAMP-dependent protein kinase catalytic subunit alpha (Homo sapiens) (UniProt P17612); conditions: dose 50.0 nM
Description: Inhibition of human PKAalpha at 50 nM in presence of ATP by radiometric Hotspot kinase assay relative to control

[15] = molecular target: RAC-alpha serine/threonine-protein kinase (Homo sapiens) (UniProt P31749); assay: Inhibition of human Akt1 at 50 nM in presence of ATP by radiometric Hotspot kinase assay
[16] = Drug metabolism in human liver microsomes at 0.1 uM measured after 60 mins; format: ADME, Microsome; conditions: 1 h
[17] = Aqueous solubility of compound in PBS at pH 7.4 by shake-flask method; format: physicochemical
[18] = Metabolic stability in human liver microsomes assessed as intrinsic clearance at 0.1 uM measured after 60 mins; format: ADME, Microsome; conditions: 1 h
[19] = Apparent permeability across apical to basolateral side in human Caco-2 cells at 10 uM; format: ADME, cell-based; conditions: caco-2, 10 µM
hERG (KCNH2) = hERG (KCNH2) (Homo sapiens, UniProt Q12809); assay: Inhibition of human ERG expressed in CHO cells at 10 uM by electrophysiological analysis relative to control; format: toxicity, cell-based; conditions: CHO cells that express human ERG
[20] = molecular target: Tyrosine-protein kinase JAK3 (Homo sapiens) (UniProt P52333); assay: Inhibition of human JAK3 at 50 nM in presence of ATP by radiometric Hotspot kinase assay relative to control
[21] = molecular target: cAMP-dependent protein kinase catalytic subunit beta (Homo sapiens) (UniProt P22694); assay: Inhibition of human PKAbeta at 50 nM in presence of ATP by radiometric Hotspot kinase assay
[22] = molecular target: Dual specificity tyrosine-phosphorylation-regulated kinase 1A (Homo sapiens) (UniProt Q13627); assay: Inhibition of human DYRK1A at 50 nM in presence of ATP by radiometric Hotspot kinase assay relative to control
[23] = molecular target: T3, cGMP-dependent protein kinase 1 (Homo sapiens) (UniProt Q13976); conditions: dose 50.0 nM
T3 sequence (whole entry): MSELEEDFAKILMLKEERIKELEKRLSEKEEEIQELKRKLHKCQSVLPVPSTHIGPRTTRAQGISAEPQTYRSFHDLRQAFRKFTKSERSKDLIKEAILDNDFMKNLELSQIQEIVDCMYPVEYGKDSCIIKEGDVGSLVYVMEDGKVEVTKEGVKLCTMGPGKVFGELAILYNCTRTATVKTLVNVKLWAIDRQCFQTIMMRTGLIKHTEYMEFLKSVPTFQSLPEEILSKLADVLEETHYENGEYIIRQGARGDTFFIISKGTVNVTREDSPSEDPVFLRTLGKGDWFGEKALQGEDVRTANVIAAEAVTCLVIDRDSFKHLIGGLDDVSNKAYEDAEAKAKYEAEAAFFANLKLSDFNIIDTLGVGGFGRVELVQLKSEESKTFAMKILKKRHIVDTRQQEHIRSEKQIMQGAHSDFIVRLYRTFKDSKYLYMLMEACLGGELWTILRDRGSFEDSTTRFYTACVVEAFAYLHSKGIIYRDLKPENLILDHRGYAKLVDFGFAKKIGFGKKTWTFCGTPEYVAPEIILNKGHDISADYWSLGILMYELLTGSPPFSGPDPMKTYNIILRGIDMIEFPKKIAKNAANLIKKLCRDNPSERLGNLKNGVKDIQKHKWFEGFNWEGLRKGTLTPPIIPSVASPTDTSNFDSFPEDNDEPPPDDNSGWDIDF
Description: Inhibition of human PKG1alpha at 50 nM in presence of ATP by radiometric Hotspot kinase assay

Homo sapiens = species: Homo sapiens; assay: Induction of thermal stabilization of His-tagged DNAJB1-PKAcalpha (unknown origin) incubated for 15 min by differential scanning fluorometric analysis
[24] = molecular target: Dual specificity protein kinase CLK4 (Homo sapiens) (UniProt Q9HAZ1); assay: Inhibition of human CLK4 at 50 nM in presence of ATP by radiometric Hotspot kinase assay relative to control
[25] = molecular target: Dual specificity tyrosine-phosphorylation-regulated kinase 1B (Homo sapiens) (UniProt Q9Y463); assay: Inhibition of human DYRK1B at 50 nM in presence of ATP by radiometric Hotspot kinase assay relative to control
[26] = molecular target: Dual specificity protein kinase CLK1 (Homo sapiens) (UniProt P49759); assay: Inhibition of human CLK1 at 50 nM in presence of ATP by radiometric Hotspot kinase assay relative to control
[27] = molecular target: Receptor-type tyrosine-protein kinase FLT3 (Homo sapiens) (UniProt P36888); assay: Inhibition of human FLT3 at 50 nM in presence of ATP by radiometric Hotspot kinase assay relative to control
[28] = molecular target: Dual specificity protein kinase CLK2 (Homo sapiens) (UniProt P49760); assay: Inhibition of human CLK2 at 50 nM in presence of ATP by radiometric Hotspot kinase assay relative to control

RAC-gamma serine/threonine-protein kinase (Homo sapiens), sequence (Q9Y243 whole entry): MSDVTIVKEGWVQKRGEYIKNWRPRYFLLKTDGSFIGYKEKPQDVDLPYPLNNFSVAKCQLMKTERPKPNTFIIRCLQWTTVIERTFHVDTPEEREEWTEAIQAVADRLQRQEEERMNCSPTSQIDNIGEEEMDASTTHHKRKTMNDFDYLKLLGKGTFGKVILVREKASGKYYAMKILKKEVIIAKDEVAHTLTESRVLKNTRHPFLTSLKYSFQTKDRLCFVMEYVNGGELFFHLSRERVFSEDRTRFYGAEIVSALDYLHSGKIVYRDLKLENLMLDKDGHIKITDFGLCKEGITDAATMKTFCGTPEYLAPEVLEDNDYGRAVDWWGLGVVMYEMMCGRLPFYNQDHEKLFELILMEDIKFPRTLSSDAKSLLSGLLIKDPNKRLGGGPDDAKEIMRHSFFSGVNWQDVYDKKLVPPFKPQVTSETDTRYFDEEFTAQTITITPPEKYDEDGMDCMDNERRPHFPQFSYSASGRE
Albumin, sequence (P02768 whole entry): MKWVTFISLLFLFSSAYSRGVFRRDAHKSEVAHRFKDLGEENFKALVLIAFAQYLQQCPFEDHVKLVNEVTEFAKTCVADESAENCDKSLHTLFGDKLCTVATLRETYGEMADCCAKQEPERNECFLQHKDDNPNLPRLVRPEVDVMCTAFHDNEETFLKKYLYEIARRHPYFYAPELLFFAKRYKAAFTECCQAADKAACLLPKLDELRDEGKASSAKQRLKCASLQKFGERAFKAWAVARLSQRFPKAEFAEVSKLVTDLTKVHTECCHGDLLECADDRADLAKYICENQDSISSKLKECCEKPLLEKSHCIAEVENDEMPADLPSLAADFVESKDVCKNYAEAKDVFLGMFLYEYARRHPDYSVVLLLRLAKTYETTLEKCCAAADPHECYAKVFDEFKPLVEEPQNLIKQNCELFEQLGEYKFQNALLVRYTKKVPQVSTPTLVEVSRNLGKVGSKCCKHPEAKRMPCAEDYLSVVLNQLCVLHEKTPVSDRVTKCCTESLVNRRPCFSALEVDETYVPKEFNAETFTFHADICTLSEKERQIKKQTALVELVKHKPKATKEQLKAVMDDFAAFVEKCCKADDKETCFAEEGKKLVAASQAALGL
RAC-beta serine/threonine-protein kinase (Homo sapiens), sequence (P31751 whole entry): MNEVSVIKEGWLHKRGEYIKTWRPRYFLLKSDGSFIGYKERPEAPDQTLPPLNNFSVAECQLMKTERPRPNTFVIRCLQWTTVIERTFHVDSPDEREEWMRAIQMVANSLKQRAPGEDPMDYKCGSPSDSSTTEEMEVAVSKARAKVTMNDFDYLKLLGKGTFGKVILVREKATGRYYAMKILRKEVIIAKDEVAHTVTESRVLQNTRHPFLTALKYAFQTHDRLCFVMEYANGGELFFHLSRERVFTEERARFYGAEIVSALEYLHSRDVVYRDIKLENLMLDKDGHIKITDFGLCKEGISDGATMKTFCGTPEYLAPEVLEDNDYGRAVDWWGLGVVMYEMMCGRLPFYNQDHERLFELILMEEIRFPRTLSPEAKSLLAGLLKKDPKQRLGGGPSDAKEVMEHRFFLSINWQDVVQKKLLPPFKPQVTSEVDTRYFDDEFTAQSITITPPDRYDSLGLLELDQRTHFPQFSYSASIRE
RAC-alpha serine/threonine-protein kinase (Homo sapiens), sequence (P31749 whole entry): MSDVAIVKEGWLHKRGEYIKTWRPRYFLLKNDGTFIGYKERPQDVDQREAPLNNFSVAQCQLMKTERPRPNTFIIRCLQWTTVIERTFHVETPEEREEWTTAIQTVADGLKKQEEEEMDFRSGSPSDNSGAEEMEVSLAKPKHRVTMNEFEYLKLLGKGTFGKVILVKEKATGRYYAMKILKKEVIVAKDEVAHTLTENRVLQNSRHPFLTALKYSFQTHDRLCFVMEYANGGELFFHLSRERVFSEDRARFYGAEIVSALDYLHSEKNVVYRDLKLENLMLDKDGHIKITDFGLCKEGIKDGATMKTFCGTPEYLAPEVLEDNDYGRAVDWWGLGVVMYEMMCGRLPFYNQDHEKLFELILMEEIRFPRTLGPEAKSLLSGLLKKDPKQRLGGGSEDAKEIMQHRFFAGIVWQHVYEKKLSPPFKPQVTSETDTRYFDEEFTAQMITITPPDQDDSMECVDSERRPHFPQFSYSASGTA
NT-3 growth factor receptor (Homo sapiens), sequence (Q16288 32-839 limits assumed): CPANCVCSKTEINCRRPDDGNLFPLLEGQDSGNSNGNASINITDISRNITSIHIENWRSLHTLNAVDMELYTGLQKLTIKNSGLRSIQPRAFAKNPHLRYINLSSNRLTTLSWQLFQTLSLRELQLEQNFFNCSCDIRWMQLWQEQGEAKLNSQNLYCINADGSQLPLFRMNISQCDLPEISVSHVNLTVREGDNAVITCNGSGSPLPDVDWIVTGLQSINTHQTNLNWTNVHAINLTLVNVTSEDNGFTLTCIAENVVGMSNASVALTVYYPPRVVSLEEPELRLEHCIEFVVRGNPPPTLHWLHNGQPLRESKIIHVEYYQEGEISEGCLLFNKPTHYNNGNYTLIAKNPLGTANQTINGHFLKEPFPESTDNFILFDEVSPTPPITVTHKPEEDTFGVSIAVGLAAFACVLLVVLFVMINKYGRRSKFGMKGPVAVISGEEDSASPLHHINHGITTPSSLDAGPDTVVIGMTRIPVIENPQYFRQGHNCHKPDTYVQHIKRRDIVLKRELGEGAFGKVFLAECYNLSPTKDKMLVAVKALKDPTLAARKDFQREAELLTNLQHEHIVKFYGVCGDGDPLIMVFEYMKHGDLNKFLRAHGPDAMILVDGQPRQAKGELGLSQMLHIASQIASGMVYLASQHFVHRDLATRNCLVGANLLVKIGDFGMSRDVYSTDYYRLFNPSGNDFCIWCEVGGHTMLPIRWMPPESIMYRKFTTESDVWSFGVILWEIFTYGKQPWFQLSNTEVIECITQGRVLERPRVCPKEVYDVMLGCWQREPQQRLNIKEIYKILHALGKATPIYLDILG
hERG (KCNH2), sequence (Q12809 whole entry): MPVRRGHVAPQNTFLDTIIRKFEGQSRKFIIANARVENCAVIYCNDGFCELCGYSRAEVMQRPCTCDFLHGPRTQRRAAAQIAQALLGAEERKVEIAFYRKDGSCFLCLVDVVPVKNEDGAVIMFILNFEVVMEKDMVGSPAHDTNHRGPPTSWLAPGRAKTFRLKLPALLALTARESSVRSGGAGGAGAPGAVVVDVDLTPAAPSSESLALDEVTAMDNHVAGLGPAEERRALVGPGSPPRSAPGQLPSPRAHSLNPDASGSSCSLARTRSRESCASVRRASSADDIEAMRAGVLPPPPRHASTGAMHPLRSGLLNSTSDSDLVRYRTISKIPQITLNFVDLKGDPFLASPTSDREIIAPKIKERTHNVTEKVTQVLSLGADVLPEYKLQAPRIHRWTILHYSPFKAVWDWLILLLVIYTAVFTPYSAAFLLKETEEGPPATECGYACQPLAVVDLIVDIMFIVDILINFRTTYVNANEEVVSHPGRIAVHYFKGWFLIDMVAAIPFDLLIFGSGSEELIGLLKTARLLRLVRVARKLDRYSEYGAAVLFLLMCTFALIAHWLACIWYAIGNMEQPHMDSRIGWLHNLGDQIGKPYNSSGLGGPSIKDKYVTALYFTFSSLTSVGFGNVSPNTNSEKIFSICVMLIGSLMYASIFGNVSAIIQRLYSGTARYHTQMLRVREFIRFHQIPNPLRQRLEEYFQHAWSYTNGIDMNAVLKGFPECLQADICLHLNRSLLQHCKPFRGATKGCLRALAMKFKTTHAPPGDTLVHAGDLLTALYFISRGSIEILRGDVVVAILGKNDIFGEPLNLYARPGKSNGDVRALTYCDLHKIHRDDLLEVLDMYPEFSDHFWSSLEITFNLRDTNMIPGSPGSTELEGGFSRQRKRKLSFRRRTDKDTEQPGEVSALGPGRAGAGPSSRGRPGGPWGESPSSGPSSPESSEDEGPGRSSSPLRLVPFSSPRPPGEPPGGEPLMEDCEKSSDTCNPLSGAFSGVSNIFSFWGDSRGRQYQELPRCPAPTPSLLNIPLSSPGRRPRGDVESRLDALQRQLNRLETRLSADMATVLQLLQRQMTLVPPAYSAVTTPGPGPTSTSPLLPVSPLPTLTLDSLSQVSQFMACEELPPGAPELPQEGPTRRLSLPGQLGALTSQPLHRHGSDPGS
Dual specificity tyrosine-phosphorylation-regulated kinase 1B (Homo sapiens), sequence (Q9Y463 whole entry, looked up): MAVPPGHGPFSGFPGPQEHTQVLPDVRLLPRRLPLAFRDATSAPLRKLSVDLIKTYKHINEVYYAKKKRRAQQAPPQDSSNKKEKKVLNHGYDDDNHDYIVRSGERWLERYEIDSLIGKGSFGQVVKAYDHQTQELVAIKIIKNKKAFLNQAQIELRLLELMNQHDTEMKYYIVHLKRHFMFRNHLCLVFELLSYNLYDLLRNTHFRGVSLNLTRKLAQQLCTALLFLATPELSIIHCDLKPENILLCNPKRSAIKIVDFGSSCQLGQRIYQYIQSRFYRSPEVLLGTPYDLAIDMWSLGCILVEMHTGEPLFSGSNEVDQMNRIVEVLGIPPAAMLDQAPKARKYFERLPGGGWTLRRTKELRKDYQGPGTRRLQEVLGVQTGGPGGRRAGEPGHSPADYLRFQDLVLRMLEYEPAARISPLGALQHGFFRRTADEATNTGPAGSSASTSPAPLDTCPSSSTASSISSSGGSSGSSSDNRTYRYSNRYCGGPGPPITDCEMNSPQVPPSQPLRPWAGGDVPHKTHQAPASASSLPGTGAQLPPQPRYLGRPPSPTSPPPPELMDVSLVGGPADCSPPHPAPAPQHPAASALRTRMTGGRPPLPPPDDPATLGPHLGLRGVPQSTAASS

Structure (SMILES): C1=C(c2ccnc3[nH]ccc23)SCCN1c1ccnc2[nH]ccc12
- LC50 (SR): 600 nM
- IC50 [1]: 2800 nM
- Activity (NCI/ADR-RES): inactive
- GI50 [2]: 1550 nM
- GI50 (LOX IMVI): > 1000 nM
- LC50 (MOLT-4): 780 nM
- Activity (OVCAR-4): inactive
- Activity (MDA-MB-468): Active

Structure (SMILES): Cn1c(Br)nc(Br)c1C1=CN(c2ncnc3[nH]cnc23)CCS1
- Activity (SR): Active
- Activity (NCI/ADR-RES): inactive
- GI50 [2]: 360 nM
- GI50 (LOX IMVI): > 1000 nM
- Activity (MOLT-4): Active
- Activity (OVCAR-4): inactive
- Activity (MDA-MB-468): Active

Structure (SMILES): O=C(N[C@@H](c1ccccc1)[C@H]1CCCN1)C1=CN(c2ncnc3[nH]ccc23)CCS1
- Activity (SR): Active
- IC50 [3]: 660 nM
- inhibition [4]: > 50%
- inhibition [5]: Active
- IC50 [1]: 6 nM
- Papp [6]: 19.7 10^-6 cm/s
- t1/2 [7]: > 1 h
- PB (Albumin): 84%
- efflux ratio at 10 µM [8]: 66
- Activity (NCI/ADR-RES): inactive
- inhibition [9]: > 50%
- inhibition [10]: Active
- inhibition [11]: Active
- inhibition [12]: > 50%
- inhibition [13]: Active
- inhibition [14]: Active
- inhibition [15]: Active
- Drug metabolism [16]: metabolite_notdetected
- GI50 (LOX IMVI): 40 nM
- solubility thermodynamic [17]: > 200 µM
- CLH [18]: < 115 µL/min/mg
- Activity (MOLT-4): Active
- Activity (OVCAR-4): inactive
- Activity (MDA-MB-468): Active
- Papp [19]: 0.3 10^-6 cm/s
- inhibition at 10 µM (hERG (KCNH2)): 33%
- inhibition [20]: > 50%
- inhibition [21]: Active

Structure (SMILES): Cc1c[nH]c2ncnc(N3C=C(C(=O)N4CCC[C@@H](N)C4)SCC3)c12
- Activity (SR): Active
- IC50 [3]: 3400 nM
- inhibition [22]: Active
- Papp [6]: 6.6 10^-6 cm/s
- inhibition [23]: Active
- t1/2 [7]: > 1 h
- Activity (Homo sapiens): Dose-dependent-effect
- PB (Albumin): 84%
- inhibition [24]: Active
- inhibition [25]: Active
- Activity (NCI/ADR-RES): inactive
- inhibition [26]: Active
- inhibition [10]: Active
- inhibition [11]: Active
- inhibition [12]: > 50%
- inhibition [15]: Active
- Drug metabolism [16]: metabolite_notdetected
- GI50 (LOX IMVI): > 1000 nM
- inhibition [27]: > 50%
- solubility thermodynamic [17]: > 200 µM
- inhibition [28]: Active
- CLH [18]: < 115 µL/min/mg
- Activity (MOLT-4): Active
- Activity (OVCAR-4): inactive
- Activity (MDA-MB-468): Active
- Papp [19]: 0.1 10^-6 cm/s
- inhibition at 10 µM (hERG (KCNH2)): 28%
- inhibition [21]: Active
